Reference: patent US12052991B2, “Substituted pyridinyloxybenzenes and salts thereof and use thereof as herbicidal agents” (Bayer Aktiengesellschaft, priority 2018, dated 2024)

Legend:
Assay type in all cases: in vivo
[1] = system: Diplotaxis tenuifolia (DIPTE); test: Herbicidal early post-emergence action (Table A5); details: 1900 g/ha; scored visually 9 to 12 days after treatment; 100% = plants have died, 0% = like control plants
Description: (§1) Seeds of monocotyledonous and dicotyledonous weed plants were placed in 96-well microtiter plates in quartz sand and grown in a climatized chamber under controlled growth conditions. 5 to 7 days after sowing, the test plants were treated at the cotyledon stage. The compounds according to the invention, formulated in the form of emulsion concentrates (EC), were applied with a water application rate of the equivalent of 2200 liters per hectare. After the test plants had been left to stand in the climatized chamber for 9 to 12 days under optimum growth conditions, the effect of the preparations was scored visually in comparison to untreated controls. For example, 100% activity=the plants have died, 0% activity=like control plants. Tables A1 to A8 below show the effects of selected compounds of the general formula (I) according to Table 1 on various harmful plants and an application rate corresponding to 1900 g/ha, which were obtained by the experimental procedure mentioned above.

[2] = system: harmful plants AGSTE, DIPTE, LOLPE, MATCH, POAAN, SETVI, STEME and VERPE; test: Herbicidal early post-emergence action, summary of Tables A1-A8; details: application rate of 1900 g of active ingredient per hectare; summary in words
Description: as §1, with “plants.” for “plants. Tables A1 to A8 below show the effects of selected compounds of the general formula (I) according to Table 1 on various harmful plants and an application rate corresponding to 1900 g/ha, which were obtained by the experimental procedure mentioned above.”
Tables A1 to A8 below show the effects of selected compounds of the general formula (I) according to Table 1 on various harmful plants and an application rate corresponding to 1900 g/ha, which were obtained by the experimental procedure mentioned above.
As the results of Tables A1-A8 show, compounds no.

[3] = system: Matricaria chamonilla (MATCH); test: Herbicidal early post-emergence action (Table A6); details: 1900 g/ha; scored visually 9 to 12 days after treatment; 100% = plants have died, 0% = like control plants
Description: as §1

Poa annua (POAAN) = test: Herbicidal early post-emergence action (Table A3); details: 1900 g/ha; scored visually 9 to 12 days after treatment; 100% = plants have died, 0% = like control plants
Description: as §1

Agrostis tenuis (AGSTE) = test: Herbicidal early post-emergence action (Table A1); details: 1900 g/ha; scored visually 9 to 12 days after treatment; 100% = plants have died, 0% = like control plants
Description: as §1

[4] = system: wheat (TRZAS, var. Triso); test: Pre-emergence crop plant compatibility (Table E1); details: dosage 80 g/ha, scored after about 3 weeks, 0% = like control plants
Excerpt: (§2) Seeds of monocotyledonous and dicotyledonous crop plants were placed in plastic or organic plant pots and covered with soil. The compounds of the invention, formulated in the form of wettable powders (WP) or as emulsion concentrates (EC), were then applied to the surface of the covering soil as aqueous suspension or emulsion with addition of 0.5% additive at a water application rate equivalent to 600 l/ha (converted). After the treatment, the pots were placed in a greenhouse and kept under good growth conditions for the test plants. After about 3 weeks, the effect of the preparations was scored visually in comparison with untreated controls as percentages. For example, 100% activity=the plants have died, 0% activity=like control plants.

[5] = system: soybean (GLXMA, var. Sultana); test: Pre-emergence crop plant compatibility (Table E1); details: dosage 80 g/ha, scored after about 3 weeks, 0% = like control plants
Excerpt: as §2

[6] = system: corn (ZEAMX, var. Aventura); test: Pre-emergence crop plant compatibility (Table E1); details: dosage 80 g/ha, scored after about 3 weeks, 0% = like control plants
Excerpt: as §2

Setaria viridis (SETVI) = test: Herbicidal early post-emergence action (Table A4); details: 1900 g/ha; scored visually 9 to 12 days after treatment; 100% = plants have died, 0% = like control plants
Description: as §1

Lolium perenne (LOLPE) = test: Herbicidal early post-emergence action (Table A2); details: 1900 g/ha; scored visually 9 to 12 days after treatment; 100% = plants have died, 0% = like control plants
Description: as §1

Stellaria media (STEME) = test: Herbicidal early post-emergence action (Table A7); details: 1900 g/ha; scored visually 9 to 12 days after treatment; 100% = plants have died, 0% = like control plants
Description: as §1

Veronica persica (VERPE) = test: Herbicidal early post-emergence action (Table A8); details: 1900 g/ha; scored visually 9 to 12 days after treatment; 100% = plants have died, 0% = like control plants
Description: as §1

| SMILES | Early post-emergence effect against Diplotaxis tenuifolia (DIPTE) [1] [%] | herbicidal activity against the harmful plants of Tables A1-A8 in early post-emergence treatment [2] | Early post-emergence effect against Poa annua (POAAN) (Poa annua (POAAN)) [%] | Early post-emergence effect against Agrostis tenuis (AGSTE) (Agrostis tenuis (AGSTE)) [%] | other results |
| --- | --- | --- | --- | --- | --- |
| Fc1cccc(Oc2ncc(C(F)(F)F)cc2Cl)c1-c1cc(C(F)(F)F)on1 [Example 1-5] | 80 | very good herbicidal activity | – | – | – |
| Cc1cc(-c2ccccc2Oc2ccc(Cl)cn2)ncn1 [Example 1-108] | – | very good herbicidal activity | 80 | 80 | Early post-emergence effect against Matricaria chamonilla (MATCH) [3]: 80% |
| Fc1cc(Cl)cnc1Oc1ccccc1-c1cc(C(F)(F)F)no1 [Example 1-112] | – | very good herbicidal activity | 100 | 100 | Early post-emergence effect against Matricaria chamonilla (MATCH) [3]: 80% |
| Fc1cccc(Oc2ncc(Cl)cn2)c1-c1cc(C(F)F)no1 [US 2016/ 333000 No. 144] | – | – | – | – | Crop plant compatibility in pre-emergence, TRZAS (damage to wheat) [4]: 70%; Crop plant compatibility in pre-emergence, GLXMA (damage to soybean) [5]: 100%; Crop plant compatibility in pre-emergence, ZEAMX (damage to corn) [6]: 30% |
| Cc1cc(-c2ccccc2Oc2ncc(Cl)cc2F)ncn1 [Example 1-109] | 80 | very good herbicidal activity | 100 | 80 | – |
| Cc1cc(F)c(-c2cc(C(F)F)no2)c(Oc2ccc(Cl)cn2)c1 [Example 1-88] | – | very good herbicidal activity | 100 | 100 | Early post-emergence effect against Setaria viridis (SETVI) (Setaria viridis (SETVI)): 80% |
| Cn1nc(C(F)F)cc1-c1cc(F)ccc1Oc1ccc(Cl)cn1 [Example 1-32] | 80 | very good herbicidal activity | – | 80 | – |
| Cc1cc(C)c(-c2cc(C(F)F)no2)c(Oc2ccc(Cl)cn2)c1 [Example 1-78] | – | very good herbicidal activity | 100 | 100 | Early post-emergence effect against Lolium perenne (LOLPE) (Lolium perenne (LOLPE)): 80% |
| Fc1cccc(Oc2ccccn2)c1-c1cc(C(F)F)on1 [Example 1-8] | 80 | very good herbicidal activity | – | 80 | – |
| Cc1ccc(Oc2ccccc2-c2cccc(C(F)(F)F)n2)nc1 [Example 1-51] | – | very good herbicidal activity | – | – | Early post-emergence effect against Matricaria chamonilla (MATCH) [3]: 80% |
| FC(F)(F)c1cccc(-c2ccccc2Oc2ccc(Cl)cn2)n1 [Example 1-49] | – | very good herbicidal activity | – | – | Early post-emergence effect against Setaria viridis (SETVI) (Setaria viridis (SETVI)): 100%; Early post-emergence effect against Stellaria media (STEME) (Stellaria media (STEME)): 80% |
| FC(F)(F)c1cc(-c2ccccc2Oc2ccc(Cl)cn2)on1 [Example 1-113] | – | very good herbicidal activity | 100 | 100 | Early post-emergence effect against Matricaria chamonilla (MATCH) [3]: 80% |
| Cn1nc(-c2c(F)cccc2Oc2ncccc2F)cc1C(F)F [Example 1-84] | – | very good herbicidal activity | – | – | Early post-emergence effect against Veronica persica (VERPE) (Veronica persica (VERPE)): 80% |
| Fc1cccnc1Oc1cccc(F)c1-c1cc(C(F)F)on1 [Example 1-14] | 80 | very good herbicidal activity | – | – | – |
| FC(F)c1cc(-c2ccccc2Oc2ncc(Cl)cn2)on1 [US 2016/ 333000 No. 53] | – | – | – | – | Crop plant compatibility in pre-emergence, TRZAS (damage to wheat) [4]: 20%; Crop plant compatibility in pre-emergence, GLXMA (damage to soybean) [5]: 80%; Crop plant compatibility in pre-emergence, ZEAMX (damage to corn) [6]: 50% |
